The source of these data is US20250242017A1, “HISTAMINE AND HRH1 SIGNALING ACTIVITY AS BIOMARKERS AND ASSOCIATED METHODS” (Board of Regents, The University of Texas System, priority 2022, published 2025).

Assay [1] concerns bone marrow-derived macrophages (BMDMs). Particulars: TCM-treated WT BMDMs; FEXO 10 mM, 48 h.
Experimental: Generation of naïve bone marrow-derived macrophages (BMDMs). Bone marrow cells were collected from femurs obtained from 8- to 10-week-old C57BL/6 or BALB/c mice. After red blood cell lysis, bone marrow cells were seeded at a density of 5×10^6 cells/150×15 mm Petri dish and cultured at 37° C. in complete Dulbecco modified Eagle medium (DMEM) containing 20% L929 cell-conditioned medium, providing macrophage colony-stimulating factor. Macrophages were ready for use on day 7 following a fresh medium change on day 4.
Macrophage polarization and stimulation. To polarize macrophages toward an M1-like phenotype, we stimulated PBMC-derived macrophages or BMDMs with IFN-g (20 ng/ml, PeproTech) for 48 hours. To induce an M2-like phenotype, we treated THP-1-derived macrophages or BMDMs with IL-4 (20 ng/mL, PeproTech) for 48 hours. […] To stimulate macrophages with tumor cell-derived conditioned medium (TCM), we cultured BMDMs with complete medium containing 50% TCM (volume).
Flow cytometry staining and analysis. Live single cells were sub-gated by staining with Fixable Viability Dye eFluor 450 (eBioscience) for 15 minutes at 4° C. For blocking of Fc receptors, cells were then pre-incubated with purified anti-CD16/32 antibody (clone 93, BioLegend) for 10 minutes on ice before immunostaining. […]
Another assay has as its system B16-GM tumors. In words: B16-GM melanoma model.
A further assay relates to 4T1 tumors. In words: 4T1 mammary tumor model. It is filed as in vivo, mouse. The text has this: (§1) Tumor inductions and treatment experiments.
(§2) Isolation of tumor-infiltrating cells.
(§3) Flow cytometry staining and analysis.

Assay [2] deals with CT26 tumors. In words: CT26 tumor model with or without OVA-induced allergic airway disease. It is filed as in vivo, mouse.
Source text: as §1, §2, §3

Another assay has as its system CD8+ T cells. In words: In vitro co-culture of macrophages with T cells. It is filed as cell-based, mouse. As to the method: In vitro co-culture with T cells. Spleens from wild-type C57BL/6 or BALB/c mice were harvested and filtered through a […] cell strainer to generate a single-cell suspension. After red blood cell lysis, splenocytes were counted and plated in complete Roswell Park Memorial Institute 1640 medium supplemented with […] b-mercaptoethanol and 10 mM HEPES onto 12-well plates coated with […] anti-CD3 (clone 145-2C11, BioLegend) and […] anti-CD28 (clone 37N, BioLegend) antibodies. Spleen T cells were activated for 48 hours before co-culture with macrophages. To educate the macrophages, we co-cultured naïve BMDMs with tumor cells at a ratio of 1:1 or with tumor cell-derived conditioned medium for 48 hours. Macrophages were seeded with activated T cells at a ratio of 5:1. After co-culture for another 24 or 48 hours, T cells were collected for flow cytometry analysis.
as §3

In the next assay the test system is EMT6 tumors. In words: EMT6 tumor model with or without OVA-induced allergic airway disease. The format is in vivo, mouse.
Source text: as §1, §2, §3

A further assay relates to LLC tumors. The experiment in a line: LLC lung carcinoma model. The settings on record: FEXO-treated vs vehicle-treated. It is filed as in vivo, mouse.
Source text: as §1, §2, §3

Assay [3] has as its system CT26 tumors. In words: CT26 colorectal carcinoma model. The settings on record: WT mice.
Experimental: Tumor inductions and treatment experiments. […] For the CT26 model, 2×10^5 CT26 cells were subcutaneously injected into the back of BALB/c mice. […] Treatments were given as single agents or in combination, with the following regimen for each drug. […] Treatments were initiated on day 5 after tumor inoculation for the entire duration of the experiment. […] Anti-VISTA antibody (clone 13F3, Bio X Cell, 300 mg/mouse) was injected subcutaneously every day for 10 days starting on day 7, followed by continuous injection every 2 days for the rest of the duration of the experiment (Le Mercier et al., 2014). […] Tumor size was measured by calipers every second or third day when tumors were palpable, and the volume was calculated using the formula V=as (width×width×length)/2.
The subject of assay [4] is OVA-transduced EO771 tumor cells. The experiment in a line: In vitro T cell killing assay (OT-I). Particulars: in presence of FEXO-treated macrophages. It is filed as cell-based, mouse. Here is the method:
In vitro T cell killing assays. Ovalbumin (OVA)-expressing EO771 cells alone or co-cultured with macrophages at a ratio of 1:2 were plated into 12-well plates. The following day, OT-I T cells pre-activated by OVA257-264 were added to the plates at the indicated ratio. After co-culture for another 48 hours, the tumor cells were harvested and counted to determine T cell killing ability.

The next assay concerns EO771 tumors.
Source text: as §1, §2, §3

The next assay relates to macrophages. The experiment in a line: Intracellular calcium measurement (Fluo-Forte). Particulars: after histamine or TCM treatment. The format is cell-based, mouse. Here is the method:
Intracellular calcium measurement. Intracellular Ca2+ was determined using the Fluo-Forte calcium assay kit (Enzo Life Sciences) according to the manufacturer's instructions. Fluorescence was measured using a BD FACSCanto II Flow Cytometer.

The mark [5] stands for this setting: FEXO-treated WT mice vs controls.
[6] abbreviates: FEXO-treated vs vehicle-treated WT mice.
Where [7] appears, read: PD-L1-/- mice treated with FEXO.

Experimental for B16-GM tumors: Tumor inductions and treatment experiments. […] For LLC and B16-GM models, 2×10^5 tumor cells were subcutaneously injected into the back of C57BL/6 mice. […] Treatments were given as single agents or in combination, with the following regimen for each drug. […] Treatments were initiated on day 5 after tumor inoculation for the entire duration of the experiment. […] Anti-VISTA antibody (clone 13F3, Bio X Cell, 300 mg/mouse) was injected subcutaneously every day for 10 days starting on day 7, followed by continuous injection every 2 days for the rest of the duration of the experiment (Le Mercier et al., 2014). For in vivo CD8+ T cell depletion, mice were treated with 200 mg of anti-CD8 antibody every 3-4 days starting at 3 days before B16-GM tumor inoculation. […] Tumor size was measured by calipers every second or third day when tumors were palpable, and the volume was calculated using the formula V=as (width×width×length)/2.
Isolation of tumor-infiltrating cells. Mouse tumor samples were chopped with scissors and then subjected to enzymatic digestion with 2 mg/ml collagenase A (Roche) in DMEM for 1 hour at 37° C. Next, tissues were filtered through 70-mm filters (BD Biosciences) to achieve single-cell suspensions. After treatment with red blood cell lysis buffer for 5 minutes at room temperature, all samples were washed and re-suspended in flow cytometry buffer (phosphate-buffered saline/0.5% albumin/2 mM EDTA) or DMEM depending on further use.
Flow cytometry staining and analysis. Live single cells were sub-gated by staining with Fixable Viability Dye eFluor 450 (eBioscience) for 15 minutes at 4° C. For blocking of Fc receptors, cells were then pre-incubated with purified anti-CD16/32 antibody (clone 93, BioLegend) for 10 minutes on ice before immunostaining. After one wash with flow cytometry buffer, cells were incubated with appropriate dilutions of various combinations of the following antibodies. Primary antibodies to cell surface markers directed against CD45 (30-F11), CD3 (145-2C11), CD8a (53¬6.7), CD11b (M1/70), Gr-1 (RB6-8C5), F4/80 (BM8), CD206 (C068C2), I-A/I-E (M5/114.15.2), VISTA (MHSA), Tim-3 (B8.2C12), CD11c (N418), CD24 (M1/69), GITRL (YGL 386), ICOSL (HK5.3), 4-1BBL (TKS-1), CD276 (RTAA15), OX40L (RM134L), Galectin-9 (RG9-35), PD-L1 (10F.9G2), and PD-L2 (TY25) were from BioLegend; against HRH1 (480054), from R&D Systems; against HRH1 (AHR-001), from Alomone Labs; and against Siglec-F (E50-2440), from BD Biosciences. For intracellular staining, cells were fixed, permeabilized using Foxp3/Transcription Factor Staining Buffer Set (eBioscience), and then stained with fluorochrome-conjugated antibodies to Ki-67 (16A8) and PRF1 (S16009A) from BioLegend.

Turning to `CC(C)(C(=O)O)c1ccc(C(O)CCCN2CCC(C(O)(c3ccccc3)c3ccccc3)CC2)cc1` (centres unmarked) [FEXO, fexofenadine], the “M1-M2 polarization status (MHCII, CD206)” value in [1] is “polarized macrophages toward an M1-like phenotype”. Moreover, the “VISTA expression on TAMs” value with B16-GM tumors (setting [5]) and with EO771 tumors (setting [5]) was “Reduced VISTA expression” each time. Also, in the assay with B16-GM tumors (FEXO-treated WT mice, anti-CD8 antibodies), the “inhibition of B16-GM tumor growth under CD8+ T cell depletion” value is “blocked by depleting CD8+ T cells”. Also, the “numbers of IFN-g+ and PRF1+ CD8+ T cells” value with B16-GM tumors (setting [6]) and in the assay on EO771 tumors (setting [6]) was “increased numbers” each time. For the same compound, the tumor growth entry with B16-GM tumors (setting [6]) and in the assay with EO771 tumors (setting [6]) was “reduced tumor growth” throughout. Also, the B16-GM lung metastases entry with B16-GM tumors (after surgical removal of primary melanomas at 100 mm3, FEXO vs vehicle) is given as “inhibited”. In the assay with 4T1 tumors (FEXO-treated WT mice bearing 4T1 tumor vs controls), the “VISTA expression on alveolar macrophages from lung metastases” value is reported as “downregulated”. For the same compound, the “VISTA on TAMs” value in the assay with 4T1 tumors (FEXO-treated vs vehicle-treated) and in the assay with LLC tumors was “Decreased VISTA on TAMs” throughout. The “allergy-increased CT26 tumor growth” value with CT26 tumors [2] (OVA-allergic BALB/c mice) was “largely blocked by FEXO treatment”. In addition, the “sensitivity of tumors to ICB therapy with FEXO treatment” value in the assay on CT26 tumors [2] (allergic mice, ICB+FEXO) is on record as “largely restored sensitivity”; in the assay with EMT6 tumors (allergic mice, ICB+FEXO) it was “largely restored sensitivity”. For the same compound, the T cell activation/killing result with CD8+ T cells (FEXO treatment of HRH1-/- macrophages vs vehicle-treated HRH1-/- macrophages) was “did not increase”. Further, in the assay with CD8+ T cells (FEXO-treated macrophages cultured with WT splenic T cells), the “TAM-mediated T cell suppression (T cell proliferation, IFN-g, PRF1)” value is recorded as “abrogated TAM-mediated T cell suppression”. Besides, in the assay with EMT6 tumors (OVA-allergic BALB/c mice), the “allergy-accelerated EMT6 tumor growth” value was “largely blocked by FEXO treatment”. Also, the CT26 tumor growth result in the assay on CT26 tumors [3] is on record as “delayed tumor growth”. Also, in assay [4], the “OT-I cell-mediated killing of OVA-transduced EO771 tumor cells” value is on record as “increased ovalbumin (OVA)-specific OT-I cell-mediated killing”. The survival result in the assay on EO771 tumors (setting [7]) is recorded as “dramatically prolonged survival”. In the assay on EO771 tumors (setting [7]), the tumor inhibition entry is “most effective tumor inhibition”. Also, the “intracellular free Ca2+ levels” value in the assay with macrophages was “higher in WT macrophages than in HRH1−/− macrophages and FEXO-treated WT macrophages”.
